Where no end group is shown, it is not given here.
How the values were obtained:
BY-kinase A1B2 = assay: Procedure 1: inhibition of A1B2 autokinase activity (radioactivity incorporated in A1B2); type: biochemical, Staphylococcus aureus; set-up: ActivitY (inhibition): concentration or dose not given beside the values; conditions: for % of inhibition of A1B2 autokinase activity / Radioactivity incorporated in A1B2: A1B2 50 pmole
Description: 50 pmole of the purified BY-kinase (or the dephosphorylated BY-kinase) are incubated for 15 min to 1 hour in the presence of 50 pmole of the drug in a final volume of 20 microliters. The ratio BY-kinase/drug varies from 1/1 to 1/100. The reaction is performed in a buffer specific of each BY-kinase (pH condition, salt concentrations, etc.). The incubation is then continued for 30″ to 1 h in the presence of 5 microCurie of radioactive ATP (^32P or ^33P) labeled on g-P (specific activity 3000 Ci/mmole) and 50 microMolar non-radioactive ATP. The reaction is stopped by adding 5 microliter of gel-electrophoresis loading buffer 5 fold concentrate and heating 5 min at 100° C.
(§1) The procedure was applied for A1B2 [34] and CapO [20] Each Gene has been cloned in the pQE30 vector (Qiagen) to allow fusion of a histidines-tag fused to the N-terminal end of either A1B2 or CapO. This overproducing plasmid has been transformed in the Escherichia coli XL 1-blue strain. Cells have been incubated at 37° C. under shaking until A600 reached 0.5. IPTG was then added at a final concentration of 0.5 mM, and growth was continued for 3 h at 37° C. under shaking. Cells were harvested by centrifugation at 3000×g for 10 min, washed in buffer A (Tris-HCl 50 mM pH7.5, Nacl 200 mM, glycerol 10%, imidazole 10 mM) containing DNase I and RNase A at a final concentration of […] each, lysozyme 1 mg/ml, and protease inhibitors cocktail. Cells were disrupted by sonication. The resulting suspension was centrifuged at 4° C. for 30 min at 30,000×g. The supernatant was incubated with Ni-NTA matrix (Qiagen), suitable for purification of 6 histidines fusion proteins, for 30 min at 4° C. under gentle shaking. The protein-resin complex was packed into a column for washing and elution steps. The column was washed with buffer B (Tris-HCl 50 mM pH7.5, Nacl 200 mM, glycerol 10%, imidazole 20 mM). Protein elution was carried out with buffer C (Tris-HCl 50 mM pH7.5, NaCl 200 mM, glycerol 10%, imidazole 150 mM). Eluted fractions were collected, analyzed by SDS-PAGE. Appropriated fractions are pooled and dialyzed overnight against buffer D (Tris-HCl 50 mM, pH7.5, NaCl 100 mM, DTT 1 mM, MgCl2 1 mM, glycerol 20%) and used for inhibitory tests or stored at +4° C., −20° C., or −80° C.
According to procedure 1, 50 pmole of A1B2 were incubated with either, 0 pmole, 50 pmole, or 500 pmole, or 5 nmol of BYK001 for 15 min at 37° C. in a final volume of […]. Then, incubation was continued for 30″, or 1′, or 2′ or 5′ in the presence of […] of [g-^32P] ATP (specific activity 3000 Ci/mmole). The amount of radioactivity incorporated in A1B2 was determined by fluid scintillation counting after gel-electophoresis. The percentage of inhibition of A1B2 autokinase activity is expressed relatively to the radioactivity incorporated in A1B2 when incubated without BYK001.

[1] = system: BY-kinase A1B2 (substrate CapO); assay: Procedure 2: inhibition of CapO phosphorylation by A1B2 (radioactivity incorporated in CapO); type: biochemical, Staphylococcus aureus; conditions: A1B2 50 pmol, CapO 50 pmole
Description: The procedure 2 is based on procedure 1, except that 5 pmole to 100 pmole of the protein substrate are also added either in the same time as the drug or concomitant with the radioactive ATP and the non-radioactive ATP.
as §1
According to procedure 2, 50 pmol of A1B2 and 50 pmole of a substrate of A1B2, namely the protein CapO, were incubated with either 50 pmole, or 500 pmole, or 5 nmol of BYK001 for 15 min at 37° C. in a final volume of […]. Then, incubation was continued for 30″, or 1′, or 2′ or 5′ in the presence of […] of [g-^32P] ATP (specific activity 3000 Ci/mmole). The amount of radioactivity incorporated in CapO was determined by fluid scintillation counting after gel-electophoresis. The percentage of inhibition of CapO phosphorylation by A1B2 is expressed relatively to CapO radioactivity when incubation was performed without BYK001.

[2] = BYK001 50 pmole, incubation time 0.5 min
[3] = BYK001 50 pmole, incubation time 1 min
[4] = BYK001 50 pmole, incubation time 2 min
[5] = BYK001 50 pmole, incubation time 5 min
[6] = BYK001 500 pmole, incubation time 0.5 min
[7] = BYK001 500 pmole, incubation time 1 min
[8] = BYK001 500 pmole, incubation time 2 min
[9] = BYK001 500 pmole, incubation time 5 min
[10] = BYK001 5000 pmole, incubation time 0.5 min
[11] = BYK001 5000 pmole, incubation time 1 min
[12] = BYK001 5000 pmole, incubation time 2 min
[13] = BYK001 5000 pmole, incubation time 5 min

## BYK001: peptide with adenine PNA on lysine side chain: S-A-S-Y-Y-A-Y-K(PNA)-G-T-D; native S. aureus tyrosine cluster sequence (SASYYAYK(adenine PNA)GTD)
BY-kinase A1B2; [2]
  % of inhibition of A1B2 autokinase activity: 17.54%
  Radioactivity incorporated in A1B2: 29233 cpm
BY-kinase A1B2; [3]
  % of inhibition of A1B2 autokinase activity: 16.10%
  Radioactivity incorporated in A1B2: 71683 cpm
BY-kinase A1B2; [4]
  % of inhibition of A1B2 autokinase activity: 16.63%
  Radioactivity incorporated in A1B2: 132537 cpm
BY-kinase A1B2; [5]
  % of inhibition of A1B2 autokinase activity: 14.68%
  Radioactivity incorporated in A1B2: 325711 cpm
BY-kinase A1B2; [6]
  % of inhibition of A1B2 autokinase activity: 13.31%
  Radioactivity incorporated in A1B2: 30734 cpm
BY-kinase A1B2; [7]
  % of inhibition of A1B2 autokinase activity: 15.17%
  Radioactivity incorporated in A1B2: 72475 cpm
BY-kinase A1B2; [8]
  % of inhibition of A1B2 autokinase activity: 15.95%
  Radioactivity incorporated in A1B2: 133624 cpm
BY-kinase A1B2; [9]
  % of inhibition of A1B2 autokinase activity: 14.87%
  Radioactivity incorporated in A1B2: 324983 cpm
BY-kinase A1B2; [10]
  % of inhibition of A1B2 autokinase activity: 15.67%
  Radioactivity incorporated in A1B2: 29899 cpm
BY-kinase A1B2; [11]
  % of inhibition of A1B2 autokinase activity: 15.11%
  Radioactivity incorporated in A1B2: 72528 cpm
BY-kinase A1B2; [12]
  % of inhibition of A1B2 autokinase activity: 11.30%
  Radioactivity incorporated in A1B2: 141005 cpm
BY-kinase A1B2; [13]
  % of inhibition of A1B2 autokinase activity: 15.20%
  Radioactivity incorporated in A1B2: 323749 cpm
BY-kinase A1B2; Table 5, inhibition of BY-kinase A1B2
  ActivitY (inhibition): 15.00%
BY-kinase A1B2; conclusion from procedures 1 and 2
  inhibitory effect on BY-kinase A1B2: inhibitory effect
BY-kinase A1B2; summary
  inhibition: around 15%
[1]; [2]
  % of inhibition of CapO phosphorylation by A1B2: 10.05%
  Radioactivity incorporated in CapO: 3555 cpm
[1]; [3]
  % of inhibition of CapO phosphorylation by A1B2: 9.33%
  Radioactivity incorporated in CapO: 6388 cpm
[1]; [4]
  % of inhibition of CapO phosphorylation by A1B2: 10.69%
  Radioactivity incorporated in CapO: 15498 cpm
[1]; [5]
  % of inhibition of CapO phosphorylation by A1B2: 8.11%
  Radioactivity incorporated in CapO: 31901 cpm
[1]; [6]
  % of inhibition of CapO phosphorylation by A1B2: 11.51%
  Radioactivity incorporated in CapO: 3497 cpm
[1]; [7]
  % of inhibition of CapO phosphorylation by A1B2: 10.55%
  Radioactivity incorporated in CapO: 6302 cpm
[1]; [8]
  % of inhibition of CapO phosphorylation by A1B2: 10.40%
  Radioactivity incorporated in CapO: 15549 cpm
[1]; [9]
  % of inhibition of CapO phosphorylation by A1B2: 9.99%
  Radioactivity incorporated in CapO: 31251 cpm
[1]; [10]
  % of inhibition of CapO phosphorylation by A1B2: 11.11%
  Radioactivity incorporated in CapO: 3513 cpm
[1]; [11]
  % of inhibition of CapO phosphorylation by A1B2: 10.36%
  Radioactivity incorporated in CapO: 6315 cpm
[1]; [12]
  % of inhibition of CapO phosphorylation by A1B2: 10.85%
  Radioactivity incorporated in CapO: 15471 cpm
[1]; [13]
  % of inhibition of CapO phosphorylation by A1B2: 10.78%
  Radioactivity incorporated in CapO: 30974 cpm

Reference: patent US8710183B2, “Inhibitors of bacterial tyrosine kinase and uses thereof” (Centre National de la Recherche Scientifique (C.N.R.S.), priority 2008, dated 2014)
